A melting point compilation (Tetko et al.)

| SMILES | melting point |
| --- | --- |
| Nc1nc(-c2ccc3ccccc3n2)n[nH]1 | 297 to 299 °C |
| CCOc1ccc(NS(=O)(=O)c2ccc(C)c(N)c2)cc1 | 116 to 118 °C |
| CNC(=O)c1cc(NC)ccn1 | 114 to 116 °C |
| CC(=O)c1nc2ccccc2n1C(F)F | 65 to 67 °C |
| O=C(O)c1cc(S(=O)(=O)Cl)cc(Cl)c1Cl | 151 to 153 °C |
| Cc1ncc(C(=O)O)c(C)n1 | 151 to 153 °C |
| CC1CCc2c(sc3nc(CCC(=O)O)[nH]c(=O)c23)C1 (stereo not given) | 259 to 261 °C |
| O=C(O)C1CSC(c2ccc(Cl)s2)N1 (stereo not given) | 149 to 151 °C |
| O=C1NCCNC1(O)C(F)(F)F (stereo not given) | 144 to 146 °C |
| CCOC(=O)c1nc(C)n[nH]1 | 184 to 186 °C |
| Cn1ncc2c(Cl)nc(Cl)nc21 | 86 to 88 °C |
| O=C(O)C(Br)C12CC3CC(CC(C3)C1)C2 (stereo not given) | 162 to 166 °C |
| O=C(O)c1cc2cc(Cl)c(Cl)cc2[nH]1 | 321 to 323 °C |
| CNC(=O)c1cccc(N)c1C | 178 to 180 °C |
| CC(C)(C)CC(=O)NCC(=O)O | 106 to 108 °C |
| CCNc1ccc(C#N)c(Cl)c1 | 69 to 71 °C |
| CCOC(=O)c1cnn(-c2nccs2)c1N | 104 to 106 °C |
| O=C(O)CCc1nc(-c2nnc[nH]2)no1 | 246 to 248 °C |
| O=C(O)c1c(O)cc(Cl)cc1Cl | 189 to 191 °C |
| Nc1nc(CN2CCOCC2)cs1 | 145 to 150 °C |
| CC1CNC(=Nc2cccc3cccnc23)S1 (stereo not given) | 92 to 94 °C |
| CC(C)(C)OC(=O)Nc1ccccc1N | 105 to 107 °C |
| Cc1ccc(-c2cc(C(=O)O)c3ccccc3n2)cc1 | 180 to 184 °C |

| SMILES | melting point |
| --- | --- |
| CCN(CC)C(=O)Cn1cccc(C(=O)O)c1=O | 114 to 116 °C |
| NC(=S)Cc1cccc(Cl)c1 | 105 to 107 °C |
| CC(O)C(=O)Nc1ccccc1 (stereo not given) | 52 to 54 °C |
| O=C(O)c1ccc[nH]1 | 204 to 208 °C |
| OCCOc1cncc(Br)c1 | 51 to 53 °C |
| CC(C)CC(CNC(=O)OC(C)(C)C)C(=O)O (stereo not given) | 76 to 78 °C |
| CS(=O)(=O)CCCBr | 35 to 37 °C |
| Cc1ccccc1C1CNC(=O)C1 (stereo not given) | 115 to 117 °C |
| Nc1ccnc2ncnn12 | 264 to 266 °C |
| Cc1cc(C)cc(-n2c(C)cc(C(=O)O)c2C)c1 | 169 to 171 °C |
| O=C(O)C1(O)CCN(Cc2ccccc2)C1 (stereo not given) | 173 to 175 °C |
| NC(=O)c1cc(C(=O)O)nn1-c1ccccc1 | 269 to 271 °C |
| Cc1cnn(-c2ccc(S(N)(=O)=O)cc2F)c1 | 189 to 191 °C |
| O=C(O)C(F)(F)c1cccc(Cl)c1 | 75 to 77 °C |
| CCOc1cc2c(c3[nH]c(C(=O)O)cc13)OC(C)C2 (stereo not given) | 226 to 228 °C |
| CC1CCC2(CC1)NC(=O)N(CC(=O)O)C2=O (stereo not given) | 223 to 225 °C |
| Cn1cnc2cc(C#N)ccc21 | 139 to 141 °C |
| Nc1nnc(CC2CC2)o1 | 141 to 143 °C |
| Clc1ccccc1Nc1nc2ccccc2s1 | 126 to 128 °C |
| Cc1n[nH]c(-c2ccccc2I)n1 | 154 to 156 °C |
| CC(C)c1c(C(=O)O)cnn1-c1ccccn1 | 129 to 131 °C |
| CCOC(=O)c1cnc(C(=O)O)c(Cl)c1 | 114 to 116 °C |
| c1ccc(CCCc2nnn[nH]2)cc1 | 90 to 92 °C |

| SMILES | melting point |
| --- | --- |
| Cc1ccc(NN)nn1 | 107 to 109 °C |
| CN(CC(=O)O)S(N)(=O)=O | 94 to 96 °C |
| N#CCOc1ccc(CO)cc1 | 98 to 100 °C |
| Cn1ccnc1C(O)(c1nccn1C)C1CC1 | 166 to 168 °C |
| O=C(O)c1ccc(Cl)c(S(=O)(=O)Cl)c1 | 142 to 145 °C |
| COc1ccc(NC(C)=O)cc1S(N)(=O)=O | 220 to 222 °C |
| COC(=O)C1CSCC(c2ccccc2)N1 (stereo not given) | 96 to 98 °C |
| O=C(CCl)c1ccc(Br)cc1 | 119 to 121 °C |
| O=Cc1cnc(N2CCOCC2)nc1 | 147 to 149 °C |
| CC(=NO)c1ccc(OCc2ccc(F)cc2)cc1 | 151 to 153 °C |
| Cc1cn(-c2cccnc2)nc1N | 135 to 137 °C |
| CCOc1ccccc1-c1csc(N)n1 | 209 to 211 °C |
| O=C(O)CCOc1ccc(-c2ccccc2)cc1 | 174 to 176 °C |
| CC(C)(Oc1ccc(F)cc1)C(=O)O | 68 to 70 °C |
| CN(C)Cc1nc(Cl)c2c(-c3ccccc3)csc2n1 | 114 to 116 °C |
| CSCCC(NC(=O)c1ccco1)C(=O)O (stereo not given) | 185 to 187 °C |
| O=C(Nc1nncs1)C1CCCNC1 (stereo not given) | 186 to 188 °C |
| c1ccc2c(c1)CC(n1cccn1)CN2 (stereo not given) | 102 to 104 °C |
| CC(=O)N(C)c1ccc(S(=O)(=O)Cl)cc1 | 133 to 135 °C |
| CCOC(=O)c1c(N)sc(C(=O)N(C)C)c1C | 118 to 122 °C |
| Cn1cc(Cl)cc1C(=O)NN | 168 to 170 °C |
| Cc1nn(-c2ccccc2)c2sc(C(=O)NN)cc12 | 264 to 266 °C |
| SCc1c(Cl)cccc1Cl | 44 to 46 °C |

| SMILES | melting point |
| --- | --- |
| O=Cc1cccc(OC(F)(F)C(=O)O)c1 | 64 to 66 °C |
| COc1cc([N+](=O)[O-])ccc1NC(=O)CCCl | 144 to 146 °C |
| Sc1nnc(NCCCN2CCOCC2)s1 | 145 to 147 °C |
| CC(C)(C)OC(=O)N[C@@H]1CCCCC[C@H]1N | 72 to 74 °C |
| CC(=O)c1c(C)[nH]c(C(=O)O)c1C | 205 to 207 °C |
| O=C(O)c1cccnc1OCC(F)(F)F | 122 to 124 °C |
| Nc1cc(Cl)c(NC(=O)c2ccncc2)c(Cl)c1 | 233 to 235 °C |
| CN(C)c1ncc(N)cn1 | 78 to 80 °C |
| CC(Cn1ccnc1)NC(=O)C1(N)CCCC1 (stereo not given) | 239 to 241 °C |
| COc1ccc(-c2nc(CO)cs2)cc1 | 74 to 76 °C |
| COc1cc(C(=O)O)ccc1OCc1csc(C)n1 | 172 to 174 °C |
| O=C1CNC2CCCCC2N1 (stereo not given) | 121 to 123 °C |
| COc1cc(OC)cc(C(=O)NCC(=O)O)c1 | 91 to 93 °C |
| Fc1ccc(-c2nnc(Cl)c3ccccc23)cc1 | 186 to 188 °C |
| Cc1cc(C)nc(SCc2ccc(C(=O)NN)cc2)n1 | 135 to 137 °C |
| CS(=O)(=O)c1ccc(OCC(=O)O)cc1 | 172 to 174 °C |
| Cc1ccc(C)n1-c1ccc(N)cc1 | 93 to 95 °C |
| O=C(CCCl)NC(=O)NCc1ccccc1 | 117 to 119 °C |
| O=C(O)c1ccccc1SCc1cccs1 | 178 to 180 °C |
| CCc1c(Cl)nc(-c2ccccc2)nc1Cl | 73 to 75 °C |
| O=C(O)CCc1ccc(S(=O)(=O)N2CCCCCC2)cc1 | 122 to 124 °C |
| COC(=O)c1ccc2n[nH]c(=O)n2c1 | 225 to 227 °C |

Next, values leading:

| melting point | SMILES |
| --- | --- |
| 139 to 141 °C | O=C(O)C1CCCN1c1ncnc2ccccc12 (stereo not given) |
| 44 to 46 °C | COCCc1nc2cc(N)ccc2o1 |
| 111 to 113 °C | O=[N+]([O-])c1cccc2c1CCN2 |
| 39 to 41 °C | O=C1CCCOc2cc(Br)ccc21 |
| 51 to 55 °C | O=Cc1cccc(Br)c1O |
| 135 to 137 °C | Cc1ccsc1C(=O)Nc1ccc2c(c1)CCCN2 |
| 126 to 128 °C | O=C(O)C1Cc2cccc(F)c2O1 (stereo not given) |
| 168 to 170 °C | NS(=O)(=O)c1cccc(N2CC(C(=O)O)CC2=O)c1 (stereo not given) |
| 215 to 217 °C | NC(=NO)c1ccc2c(c1)CCO2 |
| 95 to 97 °C | CC1COc2ccccc2C1O (stereo not given) |
| 129 to 131 °C | Nc1sc2c(c1C(=O)c1cccc(Cl)c1)CCC2 |
| 85 to 87 °C | COc1ccc(N)cc1OCC1CCCO1 (stereo not given) |
| 236 to 238 °C | O=C(Nc1cccc(C(=O)O)c1)NC1CC1 |
| 264 to 266 °C | NC(=O)c1cc2ccccc2c(Cl)n1 |
| 171 to 173 °C | CC1Oc2ccc(Cl)cc2NC1=O (stereo not given) |
| 63 to 74 °C | O=C(C(Cl)c1ccccc1)N1CCCCC1 (stereo not given) |
| 93 to 95 °C | COc1ccc(N)cc1S(=O)(=O)N1CCCCC1 |
| 180 to 182 °C | O=C(O)C1CCN(S(=O)(=O)c2ccc3ccccc3c2)CC1 |
| 102 to 104 °C | Cc1ccc(-c2csc(N)n2)o1 |
| 172 to 174 °C | O=C(O)c1cc(-c2ccccc2)c(N2CCOCC2)s1 |
| 159 to 161 °C | COc1ccccc1NS(=O)(=O)c1cc(N)ccc1N1CCCC1 |
| 102 to 104 °C | O=C(O)C1=NOC(c2ccccc2)C1 (stereo not given) |
| 244 to 246 °C | COc1ccc(C)cc1-n1cc(C(=O)O)ccc1=O |
| 147 to 149 °C | O=C(CO)N1CCc2ccccc21 |
| 164 to 166 °C | O=C(Nc1cccc(O)c1)c1ccco1 |
| 40 to 42 °C | CC1CCCCC1N1C(=O)C=CC1=O (stereo not given) |
| 228 to 230 °C | O=C(O)c1cccnc1Sc1ccc2c(c1)OCCO2 |

| melting point | SMILES |
| --- | --- |
| 185 to 187 °C | O=C(CCl)N1CCc2cc(S(=O)(=O)N3CCCCC3)ccc21 |
| 344 to 346 °C | Cc1cccc(-n2c(=O)[nH]c3cc(C(=O)O)ccc3c2=O)c1 |
| 101 to 103 °C | CNc1ccc(Br)cc1[N+](=O)[O-] |
| 118 to 120 °C | CC(C)(C#N)S(=O)(=O)c1ccc(Br)cc1 |
| 50 to 52 °C | CCSc1cc(Br)ccc1C=O |
| 177 to 179 °C | CS(=O)Cc1c(C(=O)O)oc2ccccc12 (stereo not given) |
| 80 to 82 °C | Nc1cc(C2CCCC2)nn1-c1ccccc1 |
| 181 to 183 °C | COC(=O)c1cc2ccc(Cl)cc2[nH]1 |
| 223 to 225 °C | Cc1cc(=O)c(C(=O)O)nn1-c1cccc(Cl)c1 |
| 339 to 341 °C | Cc1c(C(=O)O)oc2c(F)cc(F)cc12 |
| 109 to 111 °C | CCc1cc(O)ncc1Br |
| 218 to 220 °C | O=C(O)CN1CC(=O)Nc2ccccc21 |
| 149 to 151 °C | Cc1cc(C=O)c(C)n1-c1cccc([N+](=O)[O-])c1 |
| 149 to 151 °C | O=C1NC(=O)N2CCCC12 (stereo not given) |
| 209 to 211 °C | CN1Cc2cc(Br)ccc2NC1=O |
| 49 to 51 °C | CNc1ccc(Br)cc1N |
| 119 to 121 °C | Cc1cc2ncn(CC3CO3)c2cc1C (stereo not given) |
| 157 to 159 °C | O=C(O)c1ccccc1NS(=O)(=O)c1cccc(C(F)(F)F)c1 |
| 241 to 243 °C | NC(=S)c1cc2ccccc2oc1=O |
| 205 to 207 °C | NC(=O)C1CCN(c2ccc(N)cc2)CC1 |
| 209 to 211 °C | O=c1cc2c(n[nH]1)CCC2 |
| 109 to 111 °C | CC(C(=O)O)S(=O)(=O)Cc1cccc(Br)c1 (stereo not given) |
| 142 to 144 °C | CN(C)Cc1cccc(NC(=O)c2nonc2N)c1 |
| 179 to 181 °C | O=C(O)c1[nH]c2ccccc2c1Cl |
| 280 to 282 °C | NNC(=O)c1ccc(O)c(Cl)c1 |
| 96 to 98 °C | CC1(c2ccsc2)CC(=O)NC1=O (stereo not given) |
| 151 to 155 °C | O=c1[nH]c2ccc(S(=O)(=O)Cl)cc2o1 |
